The target of experiment [1] is T1, LPL (native bovine milk protein) inactivated by ANGPTL4 (Bos taurus, UniProt P11151).
T1 construct: from tissue; host or cells: bovine milk (LPL); E. coli (GST-ANGPTL4)
T1 sequence (P11151 29-478): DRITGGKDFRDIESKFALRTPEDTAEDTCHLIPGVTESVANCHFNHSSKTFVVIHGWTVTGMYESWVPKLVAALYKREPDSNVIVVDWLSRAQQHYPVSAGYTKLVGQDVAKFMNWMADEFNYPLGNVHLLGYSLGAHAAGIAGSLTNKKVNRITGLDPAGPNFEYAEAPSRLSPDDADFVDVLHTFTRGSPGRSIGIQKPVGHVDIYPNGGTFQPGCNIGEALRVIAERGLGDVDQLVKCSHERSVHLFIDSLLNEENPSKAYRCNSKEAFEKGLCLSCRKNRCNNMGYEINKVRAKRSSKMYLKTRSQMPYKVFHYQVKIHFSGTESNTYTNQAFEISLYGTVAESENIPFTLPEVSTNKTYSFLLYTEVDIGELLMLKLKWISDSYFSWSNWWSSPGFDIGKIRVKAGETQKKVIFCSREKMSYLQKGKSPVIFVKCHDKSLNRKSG
Briefly: LPL ANGPTL4 protection assay (LPL fluorescence assay, resorufin butyrate substrate). It is filed as biochemical. To be noted: LPL activation activity, LPL 2.5 nM, ANGPTL4 20 nM.

In another experiment the test system is C57BL/6 mice. Briefly: Oral fat tolerance test (postprandial triglyceridaemia after olive oil bolus). In kind it is in vivo. The note with it: overnight-fasted C57BL/6 mice, compound IP 1 h before 10 mL/kg olive oil, bled at 1, 2 and 3.5 h. Here is the method: To examine to effects of test compounds on postprandial triglycerdemia, 5-7 week old C57BL/6 mice were fasted overnight (18 hours) on non-nutritive bedding (Alpha-Dri). Following the overnight fast, the mice are bled via retro-orbital sinus (25 μL) using microcapillaries (t-1 hr sample). The LPL activator test compound was then administered intraperitoneally (IP) in a dose volume of 10 ml/kg. One hour later the mice were bled for the t=0 timepoint. The mice were then immediately dosed with a 10 mL/kg oral bolus of olive oil. The mice were subsequently bled at 1-, 2-, and 3.5-hours post-olive oil administration.
Whole blood samples were collected into tubes containing 0.125% EDTA solution in saline. Diluted plasma samples were analyzed for triglyceride levels using Infinity Triglyceride reagent (Thermo) on a microtiter plate. Briefly, 10 μL of diluted sample was added the plate. 200 μL of the reagent was added and the plate was incubated for 10 minutes at 37° C. The plate was then read at 550 nm on a Molecular Devices M5 Spectrophotometer (San Jose, CA). The concentration of triglycerides in the sample was determined using a standard curve made using a dilution of triglyceride standard (Sigma-Aldrich, St. Louis, MO) using the Softmax software from Molecular Devices. All graphing and subsequent area under-the-curve and statistical analysis (Student's t Test) is performed using GraphPad Prism (version 8.0, GraphPad Software, Inc., San Diego, CA).

`O=C(O)Cc1cc(F)ccc1NC(=O)c1ccc(N2CCCCC2)c(NC(=O)c2nn(CC(F)(F)F)c3ccccc23)c1` [Compound 158, 2-(5-fluoro-2-(4-(piperidin-1-yl)-3-(1-(2,2,2-trifluoroethyl)-1H-indazole-3-carboxamido)benzamido)phenyl)acetic acid]: in experiment [1], the midpoint of the response, the EC50, lay at 1.01 µM. For the same compound, in the experiment with C57BL/6 mice, the “hypertriglyceridemia response to oral olive oil gavage (plasma triglycerides)” value is listed as “blunts hypertriglyceridemia response in a dose-dependent fashion”.
